Oligonucleotides are written 5' to 3', each unit as a sugar letter and its base; * is a phosphorothioate linkage, no mark a phosphodiester; rarer units and linkages stand in square brackets, end groups in braces. Plain capitals give the bases only. e = 2'-O-(2-methoxyethyl) (MOE); [5mC] = 5-methylcytosine; d = 2'-deoxy (DNA)

This is an account of results in patent US8258114B2, “Modulation of glucose-6-phosphatase translocase expression” (Isis Pharmaceuticals, Inc., priority 2004, dated 2012).

For this data set, the system named is human glucose-6-phosphatase translocase mRNA. The data set can be described thus: Antisense inhibition of human glucose-6-phosphatase translocase mRNA in T-24 cells, real-time PCR (Table 4). Format: cell-based. The settings on record: 100 nM oligonucleotide, LIPOFECTIN, mRNA by real-time PCR. How it is done: The transitional cell bladder carcinoma cell line T-24 was obtained from the American Type Culture Collection (ATCC) (Manassas, Va.). T-24 cells were routinely cultured in complete McCoy's 5A basal media (Invitrogen Life Technologies, Carlsbad, Calif.) supplemented with 10% fetal bovine serum (Invitrogen Life Technologies, Carlsbad, Calif.). Cells were routinely passaged by trypsinization and dilution when they reached approximately 90% confluence. Cells were seeded into 96-well plates (Falcon-Primaria #3872) at a density of approximately 4000-6000 cells/well for use in oligomeric compound transfection experiments. When cells reached 65-75% confluency, they were treated with oligonucleotide. […] This transfection mixture was incubated at room temperature for approximately 0.5 hours. For cells grown in 96-well plates, wells were washed once with 100 μL OPTI-MEMTM-1 and then treated with 130 μL of the transfection mixture. Cells grown in 24-well plates or other standard tissue culture plates are treated similarly, using appropriate volumes of medium and oligonucleotide. Cells are treated and data are obtained in duplicate or triplicate. After approximately 4-7 hours of treatment at 37° C., the medium containing the transfection mixture was replaced with fresh culture medium. Cells were harvested 16-24 hours after oligonucleotide treatment. […] Prior to quantitative PCR analysis, primer-probe sets specific to the target gene being measured were evaluated for their ability to be “multiplexed” with a GAPDH amplification reaction. After isolation the RNA is subjected to sequential reverse transcriptase (RT) reaction and real-time PCR, both of which are performed in the same well. RT and PCR reagents were obtained from Invitrogen Life Technologies (Carlsbad, Calif.). […] The RT reaction was carried out by incubation for 30 minutes at 48° C. Following a 10 minute incubation at 95° C. to activate the PLATINUM® Taq, 40 cycles of a two-step PCR protocol were carried out: 95° C. for 15 seconds (denaturation) followed by 60° C. for 1.5 minutes (annealing/extension). Gene target quantities obtained by RT, real-time PCR were normalized using either the expression level of GAPDH, a gene whose expression is constant, or by quantifying total RNA using RiboGreenTM (Molecular Probes, Inc. Eugene, Oreg.). GAPDH expression was quantified by RT, real-time PCR, by being run simultaneously with the target, multiplexing, or separately. Total RNA was quantified using RiboGreenTM RNA quantification reagent (Molecular Probes, Inc. Eugene, Oreg.). A series of oligomeric compounds was designed to target different regions of human glucose-6-phosphatase translocase, using published sequences cited in Table 1. All compounds in Table 4 are chimeric oligonucleotides (“gapmers”) 20 nucleotides in length, composed of a central “gap” region consisting of 10 2'-deoxynucleotides, which is flanked on both sides ([NT]) by five-nucleotide “wings”. The wings are composed of 2'-O-(2-methoxyethyl) nucleotides, also known as 2'-MOE nucleotides. The internucleoside (backbone) linkages are phosphorothioate throughout the oligonucleotide. All cytidine residues are 5-methylcytidines. The compounds were analyzed for their effect on gene target mRNA levels by quantitative real-time PCR as described in other examples herein, using the following primer-probe set designed to hybridize to human glucose-6-phosphatase translocase: Forward primer: [NT] (incorporated herein as SEQ ID NO: 24) Reverse primer: [NT] (incorporated herein as SEQ ID NO: 25) And the PCR probe was: […] (incorporated herein as SEQ ID NO: 26), where FAM is the fluorescent dye and TAMRA is the quencher dye. Data are from experiments in which T-24 cells were treated with 100 nM of the antisense oligonucleotides of the present invention using LIPOFECTINTM. A reduction in expression is expressed as percent inhibition in Table 4. If present, “N.D.” indicates “not determined”. The control oligomeric compound used was SEQ ID NO: 11. […]
As to “TGCCTACAAGGCCCCCAACT (eT*eG*e[5mC]*e[5mC]*eT*dA*d[5mC]*dA*dA*dG*dG*d[5mC]*d[5mC]*d[5mC]*d[5mC]*e[5mC]*eA*eA*e[5mC]*eT; antisense) [ISIS 194849]”, the “% Inhib” value stood at 65%.

Regarding “AGATAGGGCCAGCGTGCTGC (eA*eG*eA*eT*eA*dG*dG*dG*d[5mC]*d[5mC]*dA*dG*d[5mC]*dG*dT*eG*e[5mC]*eT*eG*e[5mC]; antisense) [ISIS 194832]”, the “% Inhib” value stood at 55%.

“GGTGCGGATGTTTCGTAGGA (eG*eG*eT*eG*e[5mC]*dG*dG*dA*dT*dG*dT*dT*dT*d[5mC]*dG*eT*eA*eG*eG*eA; antisense) [ISIS 194826]”: the “% Inhib” value is listed as 76%.

As to “AGGCAAAGAATATGTTGACC (eA*eG*eG*e[5mC]*eA*dA*dA*dG*dA*dA*dT*dA*dT*dG*dT*eT*eG*eA*e[5mC]*e[5mC]; antisense) [ISIS 194830]”, the “% Inhib” value is given as 68%.

For the sequence “TGACTGTCCTTTCTCCTGGA (eT*eG*eA*e[5mC]*eT*dG*dT*d[5mC]*d[5mC]*dT*dT*dT*d[5mC]*dT*d[5mC]*e[5mC]*eT*eG*eG*eA; antisense) [ISIS 194834]”, the “% Inhib” value turned out to be 71%.

For the sequence “CAGGGCACTCATGTAGGAGC (e[5mC]*eA*eG*eG*eG*d[5mC]*dA*d[5mC]*dT*d[5mC]*dA*dT*dG*dT*dA*eG*eG*eA*eG*e[5mC]; antisense) [ISIS 194840]”, the “% Inhib” value came to 51%.

For the sequence “CCAGGCAGGCCCCTCCTTTT (e[5mC]*e[5mC]*eA*eG*eG*d[5mC]*dA*dG*dG*d[5mC]*d[5mC]*d[5mC]*d[5mC]*dT*d[5mC]*e[5mC]*eT*eT*eT*eT; antisense) [ISIS 194858]”, the “% Inhib” value is reported as 71%.

For “CACCTATATCCAACTGCGCC (e[5mC]*eA*e[5mC]*e[5mC]*eT*dA*dT*dA*dT*d[5mC]*d[5mC]*dA*dA*d[5mC]*dT*eG*e[5mC]*eG*e[5mC]*e[5mC]; antisense) [ISIS 194837]”, the “% Inhib” value stood at 81%.

In the case of “TAACCAGTGGAGAGCACCCA (eT*eA*eA*e[5mC]*e[5mC]*dA*dG*dT*dG*dG*dA*dG*dA*dG*d[5mC]*eA*e[5mC]*e[5mC]*e[5mC]*eA; antisense) [ISIS 194833]”, the “% Inhib” value came out at 60%.

Consider “TGCGCCTAGTGGTACAGTGA (eT*eG*e[5mC]*eG*e[5mC]*d[5mC]*dT*dA*dG*dT*dG*dG*dT*dA*d[5mC]*eA*eG*eT*eG*eA; antisense) [ISIS 194829]”, for which the “% Inhib” value was found to be 82%.

Take “CTTGGCAATGGTGCTGAAGG (e[5mC]*eT*eT*eG*eG*d[5mC]*dA*dA*dT*dG*dG*dT*dG*d[5mC]*dT*eG*eA*eA*eG*eG; antisense) [ISIS 194847]”: the “% Inhib” value is given as 66%.

On to “CAGTTCCTGCTTGCCGCTCT (e[5mC]*eA*eG*eT*eT*d[5mC]*d[5mC]*dT*dG*d[5mC]*dT*dT*dG*d[5mC]*d[5mC]*eG*e[5mC]*eT*e[5mC]*eT; antisense) [ISIS 194856]”, for which the “% Inhib” value is reported as 56%.

With “TCCTTGTCCAAAGGGATCTC (eT*e[5mC]*e[5mC]*eT*eT*dG*dT*d[5mC]*d[5mC]*dA*dA*dA*dG*dG*dG*eA*eT*e[5mC]*eT*e[5mC]; antisense) [ISIS 194842]”, the “% Inhib” value is 57%.

For “GTCAAGGGTCATTAGTGCCC (eG*eT*e[5mC]*eA*eA*dG*dG*dG*dT*d[5mC]*dA*dT*dT*dA*dG*eT*eG*e[5mC]*e[5mC]*e[5mC]; antisense) [ISIS 194854]”, the “% Inhib” value worked out at 80%.

Turning to “TGTCCTTTCTCCTGGATAAG (eT*eG*eT*e[5mC]*e[5mC]*dT*dT*dT*d[5mC]*dT*d[5mC]*d[5mC]*dT*dG*dG*eA*eT*eA*eA*eG; antisense) [ISIS 194852]”, the “% Inhib” value came out at 44%.

Consider “TCTCTTCCACCAATGATGGC (eT*e[5mC]*eT*e[5mC]*eT*dT*d[5mC]*d[5mC]*dA*d[5mC]*d[5mC]*dA*dA*dT*dG*eA*eT*eG*eG*e[5mC]; antisense) [ISIS 194841]”, for which the “% Inhib” value is on record as 41%.

For “CTGTAGCCCCCAAACATGGC (e[5mC]*eT*eG*eT*eA*dG*d[5mC]*d[5mC]*d[5mC]*d[5mC]*d[5mC]*dA*dA*dA*d[5mC]*eA*eT*eG*eG*e[5mC]; antisense) [ISIS 194835]”, the “% Inhib” value is recorded as 59%.

Regarding “TAGTGGTACAGTGAGAATGA (eT*eA*eG*eT*eG*dG*dT*dA*d[5mC]*dA*dG*dT*dG*dA*dG*eA*eA*eT*eG*eA; antisense) [ISIS 194848]”, the “% Inhib” value was 81%.

“CCTGCTTGCCGCTCTCACAG (e[5mC]*e[5mC]*eT*eG*e[5mC]*dT*dT*dG*d[5mC]*d[5mC]*dG*d[5mC]*dT*d[5mC]*dT*e[5mC]*eA*e[5mC]*eA*eG; antisense) [ISIS 194844]”: the “% Inhib” value was found to be 73%.

On to “CATTAGTGCCCTGCAGCTGC (e[5mC]*eA*eT*eT*eA*dG*dT*dG*d[5mC]*d[5mC]*d[5mC]*dT*dG*d[5mC]*dA*eG*e[5mC]*eT*eG*e[5mC]; antisense) [ISIS 194828]”, for which the “% Inhib” value turned out to be 73%.

For “AACCACACACAGTGCCCCAG (eA*eA*e[5mC]*e[5mC]*eA*d[5mC]*dA*d[5mC]*dA*d[5mC]*dA*dG*dT*dG*d[5mC]*e[5mC]*e[5mC]*e[5mC]*eA*eG; antisense) [ISIS 194853]”, the “% Inhib” value came to 35%.

Consider “GATGAACCCCAAATCATCCT (eG*eA*eT*eG*eA*dA*d[5mC]*d[5mC]*d[5mC]*d[5mC]*dA*dA*dA*dT*d[5mC]*eA*eT*e[5mC]*e[5mC]*eT; antisense) [ISIS 194827]”, for which the “% Inhib” value is listed as 55%.

On to “GCTGCGCCAGCTGTAGCTCT (eG*e[5mC]*eT*eG*e[5mC]*dG*d[5mC]*d[5mC]*dA*dG*d[5mC]*dT*dG*dT*dA*eG*e[5mC]*eT*e[5mC]*eT; antisense) [ISIS 194843]”, for which the “% Inhib” value is recorded as 66%.

Take “GGTTGCCAGGATAGGGCCCA (eG*eG*eT*eT*eG*d[5mC]*d[5mC]*dA*dG*dG*dA*dT*dA*dG*dG*eG*e[5mC]*e[5mC]*e[5mC]*eA; antisense) [ISIS 194846]”: the “% Inhib” value worked out at 70%.

On to “GCTGACTGTCCTTTCTCCTG (eG*e[5mC]*eT*eG*eA*d[5mC]*dT*dG*dT*d[5mC]*d[5mC]*dT*dT*dT*d[5mC]*eT*e[5mC]*e[5mC]*eT*eG; antisense) [ISIS 194859]”, for which the “% Inhib” value is listed as 62%.

“GGACTCTCTTCACTCAGCCT (eG*eG*eA*e[5mC]*eT*d[5mC]*dT*d[5mC]*dT*dT*d[5mC]*dA*d[5mC]*dT*d[5mC]*eA*eG*e[5mC]*e[5mC]*eT; antisense) [ISIS 194825]”: the “% Inhib” value came out at 73%.

For the sequence “CAGTTCCCAGATCTGCTGAG (e[5mC]*eA*eG*eT*eT*d[5mC]*d[5mC]*d[5mC]*dA*dG*dA*dT*d[5mC]*dT*dG*e[5mC]*eT*eG*eA*eG; antisense) [ISIS 194851]”, the “% Inhib” value is 73%.

On to “GATAGCCTCACTTCAGGTGG (eG*eA*eT*eA*eG*d[5mC]*d[5mC]*dT*d[5mC]*dA*d[5mC]*dT*dT*d[5mC]*dA*eG*eG*eT*eG*eG; antisense) [ISIS 194836]”, for which the “% Inhib” value is 58%.

As to “TGTTTCGTAGGAGGAAGAAG (eT*eG*eT*eT*eT*d[5mC]*dG*dT*dA*dG*dG*dA*dG*dG*dA*eA*eG*eA*eA*eG; antisense) [ISIS 194857]”, the “% Inhib” value worked out at 44%.

As for “TTCCTGCTTGCCGCTCTCAC (eT*eT*e[5mC]*e[5mC]*eT*dG*d[5mC]*dT*dT*dG*d[5mC]*d[5mC]*dG*d[5mC]*dT*e[5mC]*eT*e[5mC]*eA*e[5mC]; antisense) [ISIS 194845]”, the “% Inhib” value came to 50%.

Consider “ATGGCGAGGGTTCCCGTAGT (eA*eT*eG*eG*e[5mC]*dG*dA*dG*dG*dG*dT*dT*d[5mC]*d[5mC]*d[5mC]*eG*eT*eA*eG*eT; antisense) [ISIS 194831]”, for which the “% Inhib” value was 54%.
